Assay results published in patent publication US20210395239A1 (Hoffmann-La Roche Inc., priority 2018, published 2021).

What was measured:
[1] = biological target: T1, CYP3A4 (Homo sapiens, UniProt P08684); test: CYP inhibition assay in human liver microsome, CYP3A4; assay type: in vitro ADME; details: human, human liver microsomes, probe midazolam 5 μM, substrate midazolam 5 μM, third value of 2C9/2D6/3A4
T1 construct: tissue BD-Gentest 452117; host or cells: human liver microsomes
Protocol: (§1) This is a high throughput screening assay used for assessment of reversible inhibition of CYP2C9, CYP2D6, and CYP3A4 activity of test compounds in human liver microsome (HLM) in early discovery stage.
(§2) 10 mM DMSO stock solutions of test compounds were diluted in DMSO to generate 2 mM intermediate stock solution. 250 nL, of intermediate stock solution were transferred in duplicate into 3 separate 384 well microtitre plates (assay-ready plates). A mixture of HLM and each substrate was made up. 45 μL of HLM substrate mix was then transferred to each well of an assay ready plate and mixed. The negative (solvent) and positive controls (standard inhibitor for each CYP) were included in each assay ready plate. The assay ready plate was warmed to 37° C. in an incubator over 10 minutes. 5 μL pre-warmed NADPH regenerating system was added to each incubation well to start the reaction. Final incubation volume was 50 μL. The assay plate then was placed back in the 37° C. incubator. After incubation (10 minutes for CYP2D6) for 5 minutes, incubates were quenched by addition of 50 μL 100% acetonitrile containing internal standards (400 ng/mL 13C6-4′-OH-Diclofenac, 20 ng/mL D3-Dextrorphan and 20 ng/mL D4-1′OH-Midazolam). The supernatants were collected for RapidFire/MS/MS analysis.
(§3) RapidFire online solid phase extraction/sample injection system (Agilent) coupled with API4000 triple quadrupole mass spectrometer (AB Sciex) were used for sample analysis. The mobile phase composed of acetonitrile and water supplemented with 0.1% formic acid. A C4 solid phase extraction cartridge is used for sample separation. MS detection is achieved in positive ion MRM mode.
(§4) Peak areas for substrate, metabolite and internal standard are determined using the RapidFire integrator software (version 3.6.12009.12296). Peak area ratios (PAR) of metabolite and internal standard (stable-labelled metabolite) are then calculated. The measurement window for each experiment is then defined:
(§5) PAR (0% activity)=average PAR for all incubations containing concentrated inhibitor; Par (100% activity)=average PAR for all incubations containing no inhibitor (DMSO controls); % Activity (test inhibitor)=[PAR (test inhibitor)−PAR (0% activity)]/[PAR (100% activity)−PAR (0% activity)]; % Inhibition (test inhibitor)=100-% Activity (test inhibitor).

[2] = biological target: T2, CYP2D6 (Homo sapiens, UniProt P10635); test: CYP inhibition assay in human liver microsome, CYP2D6; assay type: in vitro ADME; details: human, human liver microsomes, probe dextromethorphan 5 μM, substrate dextromethorphan 5 μM, second value of 2C9/2D6/3A4
T2 construct: tissue BD-Gentest 452117; host or cells: human liver microsomes
T2 sequence (P10635 whole entry): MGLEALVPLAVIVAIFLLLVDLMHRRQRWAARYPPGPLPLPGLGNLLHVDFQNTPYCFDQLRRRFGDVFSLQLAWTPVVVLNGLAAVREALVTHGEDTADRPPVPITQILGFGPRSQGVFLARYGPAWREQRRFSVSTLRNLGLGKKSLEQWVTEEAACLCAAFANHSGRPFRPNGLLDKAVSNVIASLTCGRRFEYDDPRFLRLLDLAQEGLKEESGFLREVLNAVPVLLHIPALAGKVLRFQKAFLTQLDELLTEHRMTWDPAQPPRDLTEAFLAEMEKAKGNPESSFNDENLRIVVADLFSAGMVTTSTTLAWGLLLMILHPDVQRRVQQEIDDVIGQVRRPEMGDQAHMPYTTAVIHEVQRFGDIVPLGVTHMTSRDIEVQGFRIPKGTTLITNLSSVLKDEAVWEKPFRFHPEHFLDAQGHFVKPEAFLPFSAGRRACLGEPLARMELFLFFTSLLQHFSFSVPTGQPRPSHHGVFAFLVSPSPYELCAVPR
Protocol: as §1, §2, §3, §4, §5

[3] = biological target: T3, human TLR7 (Homo sapiens, UniProt Q9NYK1); test: HEK293-Blue-hTLR-7 cells assay (SEAP reporter, R848 stimulation); assay type: cell-based; details: HEK293-Blue-hTLR7 cells, R848, 20 hrs; read-out: HEK/hTLR7 IC50
T3 construct: host or cells: HEK293 (HEK-Blue hTLR7)
T3 sequence (Q9NYK1 27-1049): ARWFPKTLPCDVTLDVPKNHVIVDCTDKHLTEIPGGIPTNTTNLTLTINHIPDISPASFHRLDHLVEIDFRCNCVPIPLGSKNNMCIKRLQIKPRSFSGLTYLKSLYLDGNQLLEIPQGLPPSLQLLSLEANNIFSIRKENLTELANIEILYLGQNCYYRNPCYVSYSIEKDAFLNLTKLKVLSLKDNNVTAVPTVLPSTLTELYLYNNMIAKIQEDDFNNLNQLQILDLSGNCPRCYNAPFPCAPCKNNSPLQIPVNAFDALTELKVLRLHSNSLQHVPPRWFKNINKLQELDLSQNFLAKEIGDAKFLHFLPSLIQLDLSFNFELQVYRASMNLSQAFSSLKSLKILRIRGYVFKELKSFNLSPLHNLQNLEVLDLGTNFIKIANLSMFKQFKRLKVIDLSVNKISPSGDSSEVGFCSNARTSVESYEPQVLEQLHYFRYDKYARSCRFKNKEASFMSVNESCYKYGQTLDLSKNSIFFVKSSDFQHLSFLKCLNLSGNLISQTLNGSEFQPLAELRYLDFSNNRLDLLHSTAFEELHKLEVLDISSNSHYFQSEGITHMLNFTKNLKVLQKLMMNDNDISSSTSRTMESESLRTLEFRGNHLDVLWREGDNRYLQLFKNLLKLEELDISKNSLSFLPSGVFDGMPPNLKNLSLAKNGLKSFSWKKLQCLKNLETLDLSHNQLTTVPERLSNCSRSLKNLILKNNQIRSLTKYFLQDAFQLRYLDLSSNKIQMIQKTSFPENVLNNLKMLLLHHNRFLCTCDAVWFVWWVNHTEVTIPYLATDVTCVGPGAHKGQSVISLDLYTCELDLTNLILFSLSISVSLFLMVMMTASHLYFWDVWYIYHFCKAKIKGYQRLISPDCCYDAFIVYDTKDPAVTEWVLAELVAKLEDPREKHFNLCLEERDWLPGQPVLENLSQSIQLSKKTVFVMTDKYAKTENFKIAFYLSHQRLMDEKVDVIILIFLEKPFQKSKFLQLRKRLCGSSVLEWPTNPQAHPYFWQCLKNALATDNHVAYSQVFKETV
Outline: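 HEK293-Blue-hTLR7 cells (NF-κB/AP-1-driven SEAP reporter) were stimulated with R848 alongside serially diluted compound at 1% final DMSO for 20 h at 37 °C. Supernatant SEAP was then developed with QUANTI-Blue for 2 h at 37 °C and absorbance read at 620–655 nm; antagonism is measured as reduced reporter signal.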

T1 sequence (P08684 whole entry): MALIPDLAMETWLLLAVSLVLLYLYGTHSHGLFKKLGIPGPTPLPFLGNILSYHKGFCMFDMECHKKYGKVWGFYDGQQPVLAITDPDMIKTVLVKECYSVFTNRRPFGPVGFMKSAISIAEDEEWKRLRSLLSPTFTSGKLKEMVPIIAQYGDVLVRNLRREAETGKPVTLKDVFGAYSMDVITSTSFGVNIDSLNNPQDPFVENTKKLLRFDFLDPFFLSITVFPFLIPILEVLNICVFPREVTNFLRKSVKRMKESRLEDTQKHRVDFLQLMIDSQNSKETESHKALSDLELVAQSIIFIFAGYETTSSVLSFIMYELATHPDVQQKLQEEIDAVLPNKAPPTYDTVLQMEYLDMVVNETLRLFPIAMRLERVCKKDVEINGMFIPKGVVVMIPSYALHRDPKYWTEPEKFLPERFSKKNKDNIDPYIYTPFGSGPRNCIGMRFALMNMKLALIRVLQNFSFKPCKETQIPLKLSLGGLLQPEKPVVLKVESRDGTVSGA

Compound	inhibition at 5 min, 10 µM [1]	inhibition at 10 min, 10 µM [2]	IC50 [3]
C[C@@H]1CN(c2ccc(C#N)c3nccnc23)C[C@H](CN2CCN(c3ccnc(N4C[C@H](N)[C@@H](F)C4)n3)CC2)O1 [Example 107, 8-[(2S,6R)-2-[[4-[2-[(3S,4S)-3-amino-4-fluoro-pyrrolidin-1-yl]pyrimidin-4-yl]piperazin-1-yl]methyl]-6-methyl-morpholin-4-yl]quinoxaline-5-carbonitrile]	34.5%	16%	8 nM
C[C@@H]1CN(c2ccc(C#N)n3nccc23)C[C@H](CN2CC(c3ccc(N4CC(C)(N)C4)cc3)C2)O1 [Example 163, 4-[(2S,6R)-2-[[3-[4-(3-amino-3-methyl-azetidin-1-yl)phenyl]azetidin-1-yl]methyl]-6-methyl-morpholin-4-yl]pyrazolo[1,5-a]pyridine-7-carbonitrile]	0.5%	6.5%	22 nM
Cc1cc(N2CCNCC2)nc(N2CCN(C[C@H]3CN(c4ccc(C#N)c5nccnc45)C[C@@H](C)O3)CC2)n1 [Example 114, 8-[(2R,6S)-2-methyl-6-[[4-(4-methyl-6-piperazin-1-yl-pyrimidin-2-yl)piperazin-1-yl]methyl]morpholin-4-yl]quinoxaline-5-carbonitrile]	16%	32%	3 nM
C[C@@H]1CN(c2ccc(C#N)n3ncc(F)c23)C[C@H](CN2CCN(c3ccc(N4CC(C)(N)C4)nc3)CC2)O1 [Example 154, 4-[(2S,6R)-2-[[4-[6-(3-amino-3-methyl-azetidin-1-yl)-3-pyridyl]piperazin-1-yl]methyl]-6-methyl-morpholin-4-yl]-3-fluoro-pyrazolo[1,5-a]pyridine-7-carbonitrile]	10.5%	-10.5%	32 nM
CO[C@H]1CN(c2cc(C)nc(N3CCN(C[C@H]4CN(c5ccc(C#N)c6nccnc56)C[C@@H](C)O4)CC3)n2)C[C@@H]1N [Example 104, 8-[(2S,6R)-2-[[4-[4-[(3S,4S)-3-amino-4-methoxy-pyrrolidin-1-yl]-6-methyl-pyrimidin-2-yl]piperazin-1-yl]methyl]-6-methyl-morpholin-4-yl]quinoxaline-5-carbonitrile]	-12%	15%	22 nM
Cc1ccc(N2C[C@H](CN3CCN(c4ccnc(N5CCNCC5)n4)CC3)O[C@H](C)C2)c2nccnc12 [Example 117, (2R,6S)-2-methyl-4-(8-methylquinoxalin-5-yl)-6-[[4-(2-piperazin-1-ylpyrimidin-4-yl)piperazin-1-yl]methyl]morpholine]	10%	4.5%	13 nM
[2H]c1ccc2c(N3C[C@H](CN4CCN(c5ccc(N[C@H]6CNC[C@H]6F)nc5)CC4)O[C@H](C)C3)ccc(C#N)c2n1 [Example 162, 2-deuterio-5-[(2S,6R)-2-[[4-[6-[[(3S,4R)-4-fluoropyrrolidin-3-yl]amino]-3-pyridyl]piperazin-1-yl]methyl]-6-methyl-morpholin-4-yl]quinoline-8-carbonitrile]	42.5%	1%	11 nM
Cc1cc(N2CCN(C[C@H]3CN(c4ccc(C#N)c5nccnc45)C[C@@H](C)O3)CC2)nc(N2CC(N)C2)n1 [Example 112, 8-[(2S,6R)-2-[[4-[2-(3-aminoazetidin-1-yl)-6-methyl-pyrimidin-4-yl]piperazin-1-yl]methyl]-6-methyl-morpholin-4-yl]quinoxaline-5-carbonitrile]	-5%	-2%	4 nM
C[C@@H]1CN(c2ccc(C#N)c3ncccc23)C[C@H](CN2CCC(c3cccc(N4CCNCC4)c3)C2)O1 (stereo partly drawn) [Example 1, 5-[(2R,6S)-2-methyl-6-[[3-(3-piperazin-1-ylphenyl)pyrrolidin-1-yl]methyl]morpholin-4-yl]quinoline-8-carbonitrile]	14%	5%	84 nM
Cc1ccc(N2C[C@H](CN3CCN(c4nccc(N5CCNCC5)n4)CC3)O[C@H](C)C2)c2nccnc12 [Example 116, (2R,6S)-2-methyl-4-(8-methylquinoxalin-5-yl)-6-[[4-(4-piperazin-1-ylpyrimidin-2-yl)piperazin-1-yl]methyl]morpholine]	8%	10%	21 nM
C[C@@H]1CN(c2ccc(C#N)c3ncccc23)C[C@H](CN2CC(c3ccc(N4CCNCC4)cc3)C2)O1 [Example 3, 5-[(2R,6S)-2-methyl-6-[[3-(4-piperazin-1-ylphenyl)azetidin-1-yl]methyl]morpholin-4-yl]quinoline-8-carbonitrile]	4.5%	13.5%	11 nM
CO[C@H]1CN(c2nc(C)cc(N3CCN(C[C@H]4CN(c5ccc(C#N)c6nccnc56)C[C@@H](C)O4)CC3)n2)C[C@@H]1N [Example 106, 8-[(2S,6R)-2-[[4-[2-[(3S,4S)-3-amino-4-methoxy-pyrrolidin-1-yl]-6-methyl-pyrimidin-4-yl]piperazin-1-yl]methyl]-6-methyl-morpholin-4-yl]quinoxaline-5-carbonitrile]	20.5%	3%	9 nM
